13 compounds from article PMC6017214, “Rational Design of a New Class of Toll-Like Receptor 4 (TLR4) Tryptamine Related Agonists by Means of the Structure- and Ligand-Based Virtual Screening for Vaccine Adjuvant Discovery” (Molecules : A Journal of Synthetic Chemistry and Natural …, 2018) can be followed below.

A short description of series [1]: Stability of the solid compounds (observation). Type of series: physicochemical. To be noted: solid state.
Series [2] relates to CHO-K1 (Chinese hamster ovary). The series can be described thus: MTT cytotoxicity assay. It counts as cell-based. To be noted: Cricetulus griseus, CHO-K1 cells, 24 h exposure, mean of 2–3 independent measurements, read-out: IC50 and SEM. The procedure: The toxicity was estimated on the cell cultures in order to exclude the most toxic motifs from further development and to test whether the compounds might be used in the functional cell-model of TLR4. Standard MTT assay (Sigma Aldrich, Damrstadt, Germany) was applied according to the manufacturer’s protocol on the CHO-K1 (Chinese hamster ovary, ECACC, Salisbury, UK).
The IC50 values were calculated from the control-subtracted triplicates using non-linear regression (four parameters) of GraphPad Prism 5 software (GraphPad Software, La Jolla, CA, USA). Final IC50 and SEM value was obtained as a mean of 2–3 independent measurements (see Table 3).
Standard MTT assay (Sigma Aldrich, Darmstadt, Germany) was applied according to the manufacturer’s protocol on the CHO-K1 (Chinese hamster ovary, ECACC, Salisbury, UK) in order to compare the effect of different compound within the series. The cells were cultured according to ECACC recommended conditions and seeded in a density of 8000 per well. […] Cells were exposed to the tested compounds for 24 h. Then the medium was replaced by a medium containing 10 μM of MTT and cells were allowed to produce formazan for another approximately 3 h under surveillance. Thereafter, medium with MTT was sucked out and crystals of formazan were dissolved in DMSO (100 µL). Cell viability was assessed spectrophotometrically by the amount of formazan produced. Absorbance was measured at 570 nm with 650 nm reference wavelength on Synergy HT (BioTek, Winooski, VT, USA). IC50 was then calculated from the control—subtracted triplicates using non-linear regression (four parameters) of GraphPad Prism 5 software (GraphPad Software, La Jolla, CA, USA). Final IC50 and SEM value was obtained as a mean of 2–3 independent measurements.
(Tetrazolium dyes change colour on reduction, which living cells bring about.)

Series [3] deals with human Periferal blood mononuclear cells (PBMCs). Kind of series: Ex vivo stimulation of IL-6 production (ELISA). It counts as cell-based. As to conditions: 24 h; for c (IL-6 production): 10 µM of each compound (MPLA 10 μM, LPS-RS 100 ng/mL), ELISA, dash = no IL-6 production found; for ability to elicit IL-6 production (in words): 10 µM. The text has this: Important factor in adjuvants development is wheter the compounds are capable to elicit immune response not only on reporter cells but on real immunocompetent cels. We have chosen ex vivo study on human Periferal blood mononuclear cells (PBMCs) to evaluate the ability to produce an interleukin 6 (IL-6). […] We have collected the blood samples from healthy donors. From those blood samples we had harvested PBMCs by standard protocol using Histopaque 1077 density gradient. PBMC specimens were frozen and kept in liquid nitrogen. The cells were incubated for 24 h with 10 µM (10% of lowest cytotoxic IC50—see the Section 2.5 and Section 2.6) of each compound and the ability to elicit IL-6 production was assessed. Synthetic MPLA (MPLAs) in equimolar concentration (10 μM) was used as a positive control and LPS from Rhodobacter sphaeroides 100 ng/mL (LPS-RS) as a negative control. IL-6 production was quantified by ELISA commercial kit (Sigma Aldrich) and results were interpreted by GraphPad Prism using Nonlinear Fit of RIA data function. […] Effect on other pro-inflamatory cytokines (e.g., IL-1) was not determined in this study and will be subject of ongoing study in order to explain discrepancy among in silico, in vitro and ex vivo findings. Furthermore study evaluating the influence of compounds on Th1/Th2/Th17 bias will be needed to thoroughly assess their adjuvant and immunomodulating potential. Nevertheless, despite such necesarry and laborious tasks novel TLR4 agonists and potential vaccine adjuvants have been found.
PBMCs was obtained by standard protocol using Histopaque 1077 gradient from whole blood of healthy donors. Cells were seeded at 25,000 cells per well and incubated for 24 h with final concentration 10 µM of each compound in triplicate (n = 3). After 24 h 100 µL of supernatant was collected from each well and level of IL-6 was determined by human IL-6 ELISA kit obtained from Sigma Aldrich (Darmstadt, Germany). Absorbance was measured at 450 nm wavelength on Synergy HT (BioTek). Level of IL-6 was calculated from standard curve using RIA nonlinear plot in Graph Pad Prism 6.
(An ELISA detects its analyte on a solid surface through an enzyme-linked reagent.)

Series [4] has as its target T1, Recombinant hTRL4/MD2 complex (Homo sapiens, UniProt O00206+Q9Y6Y9).
T1 construct: purchased R&D Systems
Kind of series: Surface plasmon resonance direct binding (Biacore T200). The method, then:
To shed light on the prediction capabilities of vHTPS, direct binding of the best compound from the in vitro study (17) to the hTRL4/MD2 complex was investigated through Biospecific Interaction Analysis using the SPR-based biosensor Biacore T200 (GE Healthcare, Little Chalfont, UK).
Compound 17 was further analyzed using a series of concentrations from 6.25 up to 200 μM (binary dilution).
Surface plasmon resonance (SPR) experiments methodology was adapted from experiments by Svajger et al.. The experiments were performed using a Biacore T200 (GE Healthcare, Little Chalfont, UK) instrument equipped with a Series S—CM5 sensor chip (GE Healthcare). Dulbecco’s PBS supplied with 0.05% tween 20 and DMSO was used for immobilization of the protein. Recombinant human hTLR4/MD2 (R&D Systems, Minneapolis, MN, USA) was attached to the surface of the chip by amine coupling. The surface of flow cells 1 and 2 was initially activated with a 10-min pulse of a 1:1 mixture of 0.4 M 1-ethyl-3-(3-dimethylaminopropyl)-carbodiimide hydrochloride and 0.1 M N-hydroxysuccinimide, according to manufacturer recommendations. TLR4 was diluted into 10 mM sodium acetate buffer, pH 5.5, to a final concentration of 200 μg/mL, and injected twice for 600 s over the second flow cell. Both flow cells were blocked with a 10-min pulse of 1.0 M ethanolamine pH 8.5. The final capacity level was about 8000 RU. Analysis was performad in the running buffer consisting of Dulbecco’s PBS (10 mM Na2HPO4, 2 mM KH2PO4, 137 mM NaCl, 2 mM KCl, pH 7.4) supplemented with 1% DMSO (Sigma Aldrich, Darmstadt, Germany) and […]. All of the three hits from the cell-based assays were tested at two different concentrations: 20 μM and 200 μM. Each compound was injected for 1 min at a flow-rate of 30 μL/min, and the dissociation was monitored for 30 s. Regeneration was not needed, although 30 s of buffer-flow was used to stabilize the surface after each injection. […] We used the following concentrations for titration: 0, 6.25, 12.5, 25, 50, 100 and 200 μM.

Another series addresses T2, hTLR4/MD2 receptor (Homo sapiens, UniProt O00206+Q9Y6Y9).
T2 construct: host or cells: HEK-Blue-hTLR4 cells
Kind of series: In vitro hTLR4/MD2 activity assessment in HEK-Blue-hTLR4 reporter cells (SEAP). Type of series: cell-based. To be noted: 10 µM, 16 h, relative to MPLA at same concentration, n = 3. The procedure:
Aliquots of 20 µL of each compound was added into the well containing 25000 HEK-Blue™-hTLR4 cells (Invivogen, Toulouse, France) and the final concentration of compound in each well was 10 µM. Each concentration was evaluated in triplicate. Synthetic MPLAs (Invivogen) of the same concentration was used as positive control, apyrogenous saline F1 (BBraun, Prague, Czech Republic) was used as negative control. Plates were incubated overnight for 16 h at 37 °C 5% CO2. After the incubation 20 μL aliquots of supernatant were collected and mixed with 200 μL of SEAP detection media (QuantiBlue™, Invivogen) and incubated for 2 h at 37 °C 5% CO2. Absorbance of the solution was measured at 630 nm and activity of each compound expressed as a percentage of an activity of the MPLA of respective concentration was determined (n = 3).

T1 sequence (O00206 24-631 limits assumed): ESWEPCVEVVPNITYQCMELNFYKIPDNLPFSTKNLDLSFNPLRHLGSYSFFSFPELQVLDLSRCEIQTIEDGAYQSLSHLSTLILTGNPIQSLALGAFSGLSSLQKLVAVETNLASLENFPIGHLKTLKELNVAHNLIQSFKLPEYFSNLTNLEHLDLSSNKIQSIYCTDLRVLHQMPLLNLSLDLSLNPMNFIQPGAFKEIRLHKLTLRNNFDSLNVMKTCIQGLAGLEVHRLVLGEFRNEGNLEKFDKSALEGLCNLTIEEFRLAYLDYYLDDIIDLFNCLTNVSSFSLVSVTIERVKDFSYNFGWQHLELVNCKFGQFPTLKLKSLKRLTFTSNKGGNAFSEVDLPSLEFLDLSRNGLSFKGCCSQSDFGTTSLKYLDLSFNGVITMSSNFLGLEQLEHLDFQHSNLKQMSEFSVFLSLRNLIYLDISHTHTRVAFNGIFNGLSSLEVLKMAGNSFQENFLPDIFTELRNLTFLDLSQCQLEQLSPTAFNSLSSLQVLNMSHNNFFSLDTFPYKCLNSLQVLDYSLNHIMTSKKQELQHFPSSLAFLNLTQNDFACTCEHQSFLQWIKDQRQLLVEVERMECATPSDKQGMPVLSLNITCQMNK
T1 sequence (Q9Y6Y9 17-160 limits assumed): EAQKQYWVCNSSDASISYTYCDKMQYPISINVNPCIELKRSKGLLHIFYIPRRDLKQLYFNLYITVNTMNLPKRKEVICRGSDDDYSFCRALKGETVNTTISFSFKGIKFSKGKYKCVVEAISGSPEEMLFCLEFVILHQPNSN
T2 sequence (O00206 24-839): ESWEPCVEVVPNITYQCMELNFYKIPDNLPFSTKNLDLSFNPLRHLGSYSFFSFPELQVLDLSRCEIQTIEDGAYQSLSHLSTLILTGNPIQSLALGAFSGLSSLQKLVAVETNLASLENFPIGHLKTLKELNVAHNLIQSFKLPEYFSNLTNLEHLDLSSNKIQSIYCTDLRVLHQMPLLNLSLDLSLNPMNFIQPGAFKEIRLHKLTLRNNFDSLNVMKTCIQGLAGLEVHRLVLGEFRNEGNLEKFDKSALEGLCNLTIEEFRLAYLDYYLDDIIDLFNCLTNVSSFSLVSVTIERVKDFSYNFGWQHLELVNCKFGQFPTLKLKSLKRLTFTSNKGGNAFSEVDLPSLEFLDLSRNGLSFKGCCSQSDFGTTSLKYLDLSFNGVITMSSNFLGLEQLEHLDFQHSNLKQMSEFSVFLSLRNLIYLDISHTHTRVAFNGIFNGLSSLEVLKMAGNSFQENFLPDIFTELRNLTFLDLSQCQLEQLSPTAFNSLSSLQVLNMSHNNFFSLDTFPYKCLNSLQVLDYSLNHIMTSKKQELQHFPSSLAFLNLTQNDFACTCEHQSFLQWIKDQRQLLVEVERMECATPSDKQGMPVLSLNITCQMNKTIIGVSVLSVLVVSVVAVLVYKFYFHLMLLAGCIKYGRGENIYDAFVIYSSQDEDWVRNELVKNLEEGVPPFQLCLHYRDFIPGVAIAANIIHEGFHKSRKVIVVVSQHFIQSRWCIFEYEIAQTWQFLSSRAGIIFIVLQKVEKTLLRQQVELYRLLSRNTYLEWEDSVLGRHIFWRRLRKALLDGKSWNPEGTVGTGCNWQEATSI
T2 sequence (Q9Y6Y9 17-160 limits assumed): as the sequence (Q9Y6Y9 17-160 limits assumed) above

`CC(C)CCC(=O)NCCc1c[nH]c2ccccc12` [Compound 25, N-(2-(1H-Indol-3-yl)ethyl)-4-methylpentanamide]: the melting point was 45.1 to 47.1 °C. The “stability of the compound (in words)” value in series [1] was “unwanted degradations from crystals to amorphous state”. In series [2], the IC50 was found to be 348 ± 35 µM.
On to `O=C(NCCc1c[nH]c2ccccc12)c1ccc(Cl)c(Cl)c1` [Compound 18, N-(2-(1H-Indol-3-yl)ethyl)-3,4-dichlorobenzamide], for which the melting point lay in the range of 112.4 to 113.9 °C. Further, the IC50 in series [2] amounted to 892 ± 122 µM.
As to “Monophosphoryl lipid A [MPLA, reference compound]”, the “c (IL-6 production)” value in series [3] is given as 3078.97 pg/mL.
In turn, `O=C(NCCc1c[nH]c2ccccc12)C1CCCCCC1` [Compound 24, N-(2-(1H-Indol-3-yl)ethyl)cycloheptanecarboxamide] came in with a melting point of 88.4 to 90.4 °C. Further, the “stability of the compound (in words)” value in series [1] is listed as “unwanted degradations from crystals to amorphous state”. The IC50 in series [2] was determined as 170 ± 10 µM.
Take `Cc1ccc(C(=O)NCCc2c[nH]c3ccccc23)cc1` [Compound 15, N-(2-(1H-Indol-3-yl)ethyl)-4-methylbenzamide]: in series [2], the IC50 was found to be 197 ± 41 µM.
Compound `O=C(NCCc1c[nH]c2ccccc12)c1ccc2ccccc2c1` [Compound 19, N-(2-(1H-Indol-3-yl)ethyl)-2-naphthamide] had a melting point of 193.2 to 195 °C. Besides, in series [2], the 50% inhibitory concentration (IC50) came out at 155 ± 12 µM.
`O=C(NCCc1c[nH]c2ccccc12)C1CCCCC1` [Compound 20, N-(2-(1H-Indol-3-yl)ethyl)cyclohexanecarboxamide] had a melting point of 104.8 to 106.3 °C. Besides, in series [2], the IC50 was 211 ± 43 µM.
On to `O=C(NCCc1c[nH]c2ccccc12)c1ccc(Cl)cc1` [Compound 17, N-(2-(1H-Indol-3-yl)ethyl)-4-chlorobenzamide], for which the “dissociation (SPR, in words)” value in series [4] (6.25 up to 200 μM) is listed as “rapid dissociation rates”. The Kd in series [4] (SPR, immobilized hTRL4/MD2, 6.25 up to 200 μM) came to 0.747 µM. Further, the “direct binding to the hTRL4/MD2 complex (SPR, in words)” value in series [4] (immobilized recombinant hTRL4/MD2) is listed as “direct binding to the hTRL4/MD2 complex was confirmed”. For the same compound, the “ability to elicit IL-6 production (in words)” value in series [3] is reported as “did not shown any effect”. Moreover, on hTLR4/MD2 receptor, the “activity of MPLA (hTLR4/MD2 agonist activity normalized to MPLA)” value was “more than 20%”. The IC50 in series [2] is 201 ± 8 µM.
For `COc1ccc(C(=O)NCCc2c[nH]c3ccccc23)cc1` [Compound 16, N-(2-(1H-Indol-3-yl)ethyl)-4-methoxybenzamide], the melting point lay in the range of 132.8 to 134.3 °C. Further, the IC50 in series [2] was determined as 200 ± 7 µM.
The compound `O=C(NCCc1c[nH]c2ccccc12)C1CCc2ccccc2C1` (stereo not drawn) [Compound 22, N-(2-(1H-Indol-3-yl)ethyl)-1,2,3,4-tetrahydronaphthalene-2-carboxamide] came in with a melting point of 123.2 to 125.2 °C. Besides, in series [3], the “ability to elicit IL-6 production (in words)” value was “significantly induce production of IL-6” and the “c (IL-6 production)” value is on record as 147.64 pg/mL. For the same compound, the “activity of MPLA (hTLR4/MD2 agonist activity normalized to MPLA)” value on hTLR4/MD2 receptor is given as roughly 10%. In series [2], the IC50 came to 128 ± 8 µM.
Take `O=C(NCCc1c[nH]c2ccccc12)c1ccc2c(c1)CCCC2` [Compound 23, N-(2-(1H-Indol-3-yl)ethyl)-5,6,7,8-tetrahydronaphthalene-2-carboxamide]: the melting point lay in the range of 137 to 139 °C. Also, the IC50 in series [2] was 98 ± 6 µM.
With `O=C(NCCc1c[nH]c2ccccc12)c1cccc2ccccc12` [Compound 21, N-(2-(1H-Indol-3-yl)ethyl)-1-naphthamide], the melting point was in the range of 164.5 to 166.5 °C.
On to `O=C(NCCc1c[nH]c2ccccc12)c1ccccc1` [Compound 14, N-(2-(1H-Indol-3-yl)ethyl)benzamide], for which, in series [3], the “ability to elicit IL-6 production (in words)” value is reported as “significantly induce production of IL-6” and the “c (IL-6 production)” value is on record as 53.501 pg/mL. Moreover, the IC50 in series [2] is 297 ± 17 µM.

As usually defined, the melting point is the temperature, or range, at which the solid turns liquid. In general, IC50 refers to the concentration needed to halve the response being measured. As a reminder, the Kd is the concentration at which binding is half-saturated.
